Key:
[1] = system: wild type (diploid) CaHIS3 strain, CaHIS3 heterozygote strain and tetracycline promoter-regulated CaHIS3 GRACE strain; assay: Target level variation whole cell assay: 3-AT sensitivity of CaHIS3 strains; type: cell-based, Candida albicans; conditions: for sensitivity of partially repressed (minimally expressing) CaHIS3 GRACE strain relative to heterozygous CaHIS3 strain: intermediate 3-AT concentration, threshold tetracycline (FIG. 6C, 6D)
Text: The data derived from these experiments clearly indicate that distinct levels of target gene products synthesized within the pathogen could be directly applied in whole cell assay based drug screens to identify novel antifungal compounds active against novel drug targets validated using the GRACE method.
3-AT is a competitive inhibitor of the enzyme encoded by CaHIS3, imidazoleglycerol phosphate dehydratase, and together serve as a model for a drug and drug target respectively. […] The phenotype observed is consistent with that expected in light of the predicted 7.5 fold overexpression of CaHIS3 determined by Northern bolt analysis (see FIG. 5). […] A third CaHIS3 expression level evaluated for differential sensitivity to 3-AT was produced by partial repression of the GRACE CaHIS3 strain using a threshold concentration of tetracycline 0.1% […].
(§1) Moreover, these experiments clearly indicate how distinct levels of target gene products synthesized within the pathogen could be directly applied in whole cell assay based drug screens to identify novel antifungal compounds against those novel drug targets validated using the GRACE method.

[2] = system: S. cerevisiae bar-coded strains bearing heterozygous mutations in HIS3, TUB1, ALG7, and ERG11; conditions: grown together in a mixed population; targets HIS3, TUB1, ALG7, ERG11 respectively; cited from earlier work
C. albicans = assay: Sensitivity of C. albicans to selection antibiotics; type: cell-based, Candida albicans
Text: Several art-known methods are available to create a heterozygote mutant. In less preferred embodiments, auxotrophic markers, such as but not limited to CaURA3, CaHIS3, CaLEU2, or CaTRP1, could be used for gene disruption if desired. However, the preferred method of heterozygote construction in diploid fungi employs a genetically modified dominant selectable marker. C. albicans is sensitive to the nucleoside-like antibiotic streptothricin at a concentration of 200 micrograms per milliliter. The presence of the Escherichia coli SAT1 gene within C. albicans allows acetylation of the drug rendering it nontoxic and permitting the strain to grow in the presence of streptothricin at a concentration of 200 micrograms per milliliter. Expression of the SAT1 gene in C. albicans is made possible by engineering the gene so that its DNA sequence is altered to conform to the genetic code of this organism and by providing a CaACT1 promoter (Morschhauser et al. (1998) Mol. Gen. Genet. 257:412-420) and a CaPCK1 terminator sequence (Leuker et al. (1997) Gene 192: 235-40). This genetically modified marker is referred to as CaSAT1 which is the subject of a copending United States nonprovisional application, filed Feb. 16, 2001. […]

CaERG11 = conditions: determined biochemically; cited from earlier work
CaERG11 GRACE strain = assay: Target level variation whole cell assay, CaERG11 GRACE strain; type: cell-based, Candida albicans
Text: as §1

CaALG7 GRACE strain = assay: Target level variation whole cell assay, CaALG7 GRACE strain; type: cell-based, Candida albicans
Text: as §1

[3] = intermediate 3-AT concentration (FIG. 6B)

Nc1nc[nH]n1 [3-AT, 3-aminotriazole]
phenotype of CaHIS3 GRACE strain overexpressing CaHIS3 (constitutive tetracycline promoter expression) ([1]; 3-AT concentrations that completely inhibit wild type and heterozygote (FIG. 6A)): resistance
growth of wild type and CaHIS3 heterozygote strains ([1]; inhibitory levels of 3-AT (FIG. 6A)): completely inhibit growth
effect on wild type and tetracycline promoter-based overproducing CaHIS3 strains [1, 3]: unable to effect
sensitivity of heterozygous CaHIS3 strain (haploinsufficient phenotype) [1, 3]: enhanced sensitivity
sensitivity of partially repressed (minimally expressing) CaHIS3 GRACE strain relative to heterozygous CaHIS3 strain [1]: enhanced drug sensitivity
sensitivity of partially repressed (minimally expressing) CaHIS3 GRACE strain relative to heterozygous CaHIS3 strain ([1]; listed as 3-aminotriazole): hypersensitivity
sensitivity of the strain heterozygous for the compound's drug target versus other heterozygote bar-coded strains [2]: significantly greater sensitivity

CCCCNC(=O)n1c(NC(=O)OC)nc2ccccc21 [benomyl]
sensitivity of the strain heterozygous for the compound's drug target versus other heterozygote bar-coded strains [2]: significantly greater sensitivity

CN(CC[C@H](N)CC(=O)N[C@H]1C=C[C@H](n2ccc(N)nc2=O)O[C@@H]1C(=O)O)C(=N)N [blasticidin]
sensitivity of C. albicans to the fungicidal compound (C. albicans): sensitive

OC(Cn1cncn1)(Cn1cncn1)c1ccc(F)cc1F [fluconazole]
mode of action, static or cidal (CaERG11): static
GRACE strain-specific phenotypes on increasing and decreasing expression of the drug target CaERG11 (CaERG11 GRACE strain): drug resistance and sensitivity phenotypes
sensitivity of the strain heterozygous for the compound's drug target versus other heterozygote bar-coded strains [2]: significantly greater sensitivity

streptothricin
sensitivity of C. albicans to the antibiotic (C. albicans; streptothricin at 200 micrograms per milliliter): sensitive

tunicamycin
GRACE strain-specific phenotypes on increasing and decreasing expression of the drug target CaALG7 (CaALG7 GRACE strain): drug resistance and sensitivity phenotypes
sensitivity of the strain heterozygous for the compound's drug target versus other heterozygote bar-coded strains [2]: significantly greater sensitivity

— patent US6783985B1, “Gene disruption methodologies for drug target discovery” (Elitra Pharmaceuticals Inc., priority 2000, dated 2004)
